Reference: patent EP3383875B1, “3-PYRIMIDINYL PYRROLO [2,3-B] PYRIDINE AS ANTICANCER AGENTS AND THE PROCESS FOR THE PREPARATION THEREOF” (Council Of Scientific & Industrial Research, priority 2015, dated 2017)
Like-named read-outs stand apart in the source and are kept apart here.

Assays:
CDK-2/cyclin A = CDK-2/cyclin A (Homo sapiens, UniProt P24941); assay: CDK inhibition assay, CDK-2/cyclin A against Histone HI, 33P-ATP; format: biochemical; conditions: at 500 nM
Summary of the method: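 CDK-2/cyclin A (5-20 mU) phosphorylating Histone HI (1 mg/ml) in 50 mM Hepes pH 7.5, 100 mM NaCl, 10 mM Mg acetate, 0.02 mM [33P-γ-ATP], 30 min at room temperature. Stopped with orthophosphoric acid, captured on P81 filters for radiometric readout.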

CDK-9/Cyclin T1 = CDK-9/Cyclin T1 (Homo sapiens, UniProt P50750); assay: CDK inhibition assay, CDK-9/Cyclin T1 against substrate peptide, 33P-ATP; format: biochemical; conditions: at 500 nM
Description: (50-1000 cpm/pmole) and incubated for 30 min at room temperature. Assays were stopped by addition of 5 µl of 0.5 M (3%) orthophosphoric acid and then harvested onto P81 Unifilter plates with a wash buffer of 50 mM orthophosphoric acid.

MCF-7 = assay: MTT assay on cancer cell line MCF-7; format: cell-based, Human; conditions: for inhibition at 10 µM: Homo sapiens; for In vitro cell inhibition, % of inhibition, MCF-7: at 10µM
Description: (§1) Cell culture, growth conditions and treatments. […] Different molecules were dissolved in DMSO and were delivered to cell cultures in complete medium.

PC-3 = assay: MTT assay on cancer cell line PC-3; format: cell-based, human; conditions: for inhibition at 10 µM: Homo sapiens; for In vitro cell inhibition, % of inhibition, PC-3: at 10µM
Description: as §1

MDA-MB435 = assay: MTT assay on cancer cell line MDA-MB435; format: cell-based, Human; conditions: for inhibition at 10 µM: Homo sapiens, MDA-MB-435
Description: as §1

HCT-116 = assay: MTT assay on cancer cell line HCT-116; format: cell-based, human; conditions: for inhibition at 10 µM: Homo sapiens
Description: as §1

SHSY-5Y = assay: MTT assay on cancer cell line SHSY-5Y; format: cell-based, human; conditions: for inhibition at 10 µM: Homo sapiens, SH-SY5Y; for In vitro cell inhibition, % of inhibition, SHSY-5Y: at 10µM
Description: as §1

[1] = Table-6, read-out: In vitro CDK2 % of inhibition
[2] = read-out: inhibition against CDK2
[3] = Table-6, read-out: In vitro CDK9 % of inhibition
[4] = read-out: inhibition against CDK9
[5] = MCF7, MCF-7, Table 8, read-out: In vitro cell inhibition, % of inhibition, MCF-7
[6] = MCF7, read-out: inhibition against MCF-7 cell lines
[7] = Table 8, read-out: In vitro cell inhibition, % of inhibition, PC-3
[8] = read-out: inhibition against PC-3 cell lines
[9] = MDA-MB435, at 10µM, Table 8, read-out: In vitro cell inhibition, % of inhibition, MDA-MB435
[10] = at 10 µM, read-out: inhibition against MDAMB-435 cell lines
[11] = at 10µM, Table 8, read-out: In vitro cell inhibition, % of inhibition, HCT-116
[12] = at 10 µM, read-out: inhibition against HCT-116 cell lines
[13] = SHSY-5Y, Table 8, read-out: In vitro cell inhibition, % of inhibition, SHSY-5Y
[14] = read-out: inhibition against SHSY-5Y cell lines

Sequence of CDK-9/Cyclin T1 (P50750 whole entry): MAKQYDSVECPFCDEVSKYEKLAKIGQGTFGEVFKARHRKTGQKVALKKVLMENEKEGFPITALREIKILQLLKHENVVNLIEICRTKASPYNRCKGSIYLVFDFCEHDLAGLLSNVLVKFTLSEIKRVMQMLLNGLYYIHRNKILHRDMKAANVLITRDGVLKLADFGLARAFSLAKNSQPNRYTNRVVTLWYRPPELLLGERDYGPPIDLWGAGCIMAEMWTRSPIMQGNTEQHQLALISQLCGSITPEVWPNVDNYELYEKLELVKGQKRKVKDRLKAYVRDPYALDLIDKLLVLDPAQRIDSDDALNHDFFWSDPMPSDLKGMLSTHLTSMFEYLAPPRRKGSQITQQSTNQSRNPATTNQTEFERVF
Sequence of CDK-9/Cyclin T1 (O60563 whole entry partner): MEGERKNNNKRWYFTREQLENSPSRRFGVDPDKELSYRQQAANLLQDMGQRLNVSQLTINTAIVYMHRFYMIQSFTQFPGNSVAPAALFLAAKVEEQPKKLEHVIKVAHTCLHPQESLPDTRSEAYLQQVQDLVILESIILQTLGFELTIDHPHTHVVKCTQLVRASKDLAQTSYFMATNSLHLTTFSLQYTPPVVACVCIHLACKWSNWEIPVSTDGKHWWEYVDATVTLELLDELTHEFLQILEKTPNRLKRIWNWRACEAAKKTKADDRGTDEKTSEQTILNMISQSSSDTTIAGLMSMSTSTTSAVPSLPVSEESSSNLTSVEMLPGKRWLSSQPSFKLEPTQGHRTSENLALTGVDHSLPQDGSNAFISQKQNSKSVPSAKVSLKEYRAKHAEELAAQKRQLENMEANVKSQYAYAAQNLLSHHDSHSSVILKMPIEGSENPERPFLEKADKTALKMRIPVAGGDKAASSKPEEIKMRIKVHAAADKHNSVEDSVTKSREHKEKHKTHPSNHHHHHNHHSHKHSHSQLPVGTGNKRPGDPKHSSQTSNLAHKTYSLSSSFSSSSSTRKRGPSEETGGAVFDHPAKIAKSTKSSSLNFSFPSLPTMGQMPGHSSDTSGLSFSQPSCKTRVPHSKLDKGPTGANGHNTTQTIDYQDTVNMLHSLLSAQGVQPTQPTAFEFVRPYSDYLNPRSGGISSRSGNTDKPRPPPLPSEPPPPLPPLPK

Compound | inhibition at 0.5 µM (CDK-2/cyclin A; [1]) [%] | inhibition at 0.5 µM (CDK-2/cyclin A; [2]) [%] | inhibition at 0.5 µM (CDK-9/Cyclin T1; [3]) [%] | inhibition at 0.5 µM (CDK-9/Cyclin T1; [4]) [%] | inhibition at 10 µM (MCF-7; [5]) [%] | inhibition at 10 µM (MCF-7; [6]) [%] | inhibition at 10 µM (PC-3; [7]) [%] | inhibition at 10 µM (PC-3; [8]) [%] | inhibition at 10 µM (MDA-MB435; [9]) [%] | inhibition at 10 µM (MDA-MB435; [10]) [%] | inhibition at 10 µM (HCT-116; [11]) [%] | inhibition at 10 µM (HCT-116; [12]) [%] | inhibition at 10 µM (SHSY-5Y; [13]) [%] | inhibition at 10 µM (SHSY-5Y; [14]) [%] | other results
Fc1cccc(-c2cnc3[nH]cc(-c4ccnc(NC5CC5)n4)c3c2)c1 [1A5, N-cyclopropyl-4-(5-(3-fluorophenyl)-1H-pyrrolo[2,3-b]pyridin-3-yl)pyrimidin-2-amine] | > 70 | > 70 | > 70 | > 70 | > 70 | > 70 | > 70 |  | > 70 | > 70 | > 70 | > 70 | > 70 | > 70 | 
Nc1nccc(-c2c[nH]c3ncccc23)n1 [Meriolin 1, reference compound] |  |  |  |  |  |  |  |  |  |  |  |  |  |  | In vitro CDK9 % of inhibition (CDK-9/Cyclin T1; Table-6): +++ (+++ indicates greater than 70% of inhibition (+++ >70% of inhibition)); In vitro cell inhibition, % of inhibition, MCF-7 (MCF-7; Table 8): ++ (++ indicates greater than 50% of inhibition (++ >50% of inhibition)); In vitro cell inhibition, % of inhibition, MCF-7 (MCF-7; Table 9 (for reference)): ++ (++ indicates greater than 50% of inhibition (++ > 50% of inhibition)); In vitro cell inhibition, % of inhibition, PC-3 (PC-3; Table 8): ++ (++ indicates greater than 50% of inhibition (++ >50% of inhibition)); In vitro cell inhibition, % of inhibition, PC-3 (PC-3; Table 9 (for reference)): ++ (++ indicates greater than 50% of inhibition (++ > 50% of inhibition)); In vitro cell inhibition, % of inhibition, MDA-MB435 (MDA-MB435; MDA-MB435, at 10µM, Table 8): ++ (++ indicates greater than 50% of inhibition (++ >50% of inhibition)); In vitro cell inhibition, % of inhibition, MDA-MB435 (MDA-MB435; MDA-MB435, at 10µM, Table 9 (for reference)): ++ (++ indicates greater than 50% of inhibition (++ > 50% of inhibition)); In vitro cell inhibition, % of inhibition, HCT-116 (HCT-116; at 10µM, Table 8): ++ (++ indicates greater than 50% of inhibition (++ >50% of inhibition)); In vitro cell inhibition, % of inhibition, HCT-116 (HCT-116; at 10µM, Table 9 (for reference)): ++ (++ indicates greater than 50% of inhibition (++ > 50% of inhibition)); In vitro cell inhibition, % of inhibition, SHSY-5Y (SHSY-5Y; SHSY-5Y, Table 8): +++ (+++ indicates greater than 70% of inhibition (+++ >70% of inhibition)); In vitro cell inhibition, % of inhibition, SHSY-5Y (SHSY-5Y; SHSY-5Y, Table 9 (for reference)): +++ (+++ indicates greater than 70% of inhibition (+++ >70% of inhibition))

More lines, main results first:

inhibition at 0.5 µM (CDK-2/cyclin A; [1]) [%] | inhibition at 0.5 µM (CDK-2/cyclin A; [2]) [%] | inhibition at 0.5 µM (CDK-9/Cyclin T1; [3]) [%] | inhibition at 0.5 µM (CDK-9/Cyclin T1; [4]) [%] | Compound | inhibition at 10 µM (MCF-7; [5]) [%] | inhibition at 10 µM (MCF-7; [6]) [%] | inhibition at 10 µM (PC-3; [7]) [%] | inhibition at 10 µM (PC-3; [8]) [%] | inhibition at 10 µM (MDA-MB435; [9]) [%] | inhibition at 10 µM (MDA-MB435; [10]) [%] | inhibition at 10 µM (HCT-116; [11]) [%] | inhibition at 10 µM (HCT-116; [12]) [%] | inhibition at 10 µM (SHSY-5Y; [13]) [%] | inhibition at 10 µM (SHSY-5Y; [14]) [%] | other results
> 70 | > 70 | > 70 | > 70 | Fc1ccc(-c2cnc3[nH]cc(-c4ccnc(NC5CC5)n4)c3c2)cc1 [1A2, N-cyclopropyl-4-(5-(4-fluorophenyl)-1H-pyrrolo[2,3-b]pyridin-3-yl)pyrimidin-2-amine] | > 70 | > 70 | > 50 | > 50 | > 70 | > 70 | > 70 | > 70 | > 70 | > 70 | 
> 70 | > 70 | > 70 | > 70 | COc1ccc(-c2cnc3[nH]cc(-c4ccnc(NC5CC5)n4)c3c2)cc1 [1A11, N-cyclopropyl-4-(5-(4-methoxyphenyl)-1H-pyrrolo[2,3-b]pyridin-3-yl)pyrimidin-2-amine] | > 70 | > 70 | > 50 | > 50 | > 70 | > 70 | > 70 | > 70 | > 70 | > 70 | 
> 70 | > 70 | > 70 | > 70 | Clc1ccc(-c2cnc3[nH]cc(-c4ccnc(NC5CC5)n4)c3c2)cc1 [1A12, 4-(5-(4-chlorophenyl)-1H-pyrrolo[2,3-b]pyridin-3-yl)-N-cyclopropylpyrimidin-2-amine] | > 70 | > 70 | > 50 | > 50 | > 70 | > 70 | > 70 | > 70 | > 70 | > 70 | 
